In PubChem BioAssay (NCI) one finds GI50 and TGI data, which are given here for three molecules.

Test systems include M14 melanoma; IGROV1 ovarian; SK-MEL-2 melanoma; EKVX NSCLC; TK-10 renal; KM12 colon; SK-OV-3 ovarian; SF-295 CNS; HOP-92 NSCLC; HT29 colon.
Assay in all cases: DTP human tumour cell line panel, 48 h

Usually GI50 stands for the concentration that inhibits growth by half. The TGI is the concentration at which net growth stops. A high value points to less potent growth arrest.

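Exposure lasted 48 hours, with cells grown in 96-well plates and compounds tested at five concentrations. Abbreviation: GI50, concentration required for 50% inhibition of growth. TGI: concentration producing complete growth inhibition.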

On to `O=C1/C(=C/c2ccc([N+](=O)[O-])cc2)CN(C(=O)CCN2CCC(=NO)CC2)C/C1=C\c1ccc([N+](=O)[O-])cc1`, for which the GI50 was 1.51 µM in the test with M14 melanoma; 0.817 µM in the test with IGROV1 ovarian; 4.74 µM in the test with SK-MEL-2 melanoma; 2.3 µM in the test on EKVX NSCLC; 2.01 µM in the test on TK-10 renal; 0.448 µM with KM12 colon. Also, the GI50 is 5.96 µM in the test with SK-OV-3 ovarian, 2.09 µM in the test with SF-295 CNS, 2.81 µM in the test with HOP-92 NSCLC and 0.477 µM with HT29 colon. Besides, the TGI with M14 melanoma was 6.4 µM; in the test on IGROV1 ovarian, 2.75 µM; in the test on SK-MEL-2 melanoma, 16.6 µM; with EKVX NSCLC, 10.1 µM; with TK-10 renal, 6.14 µM; with KM12 colon, 1.18 µM. Also, the total growth inhibition concentration (TGI) amounted to 17.4 µM in the test on SK-OV-3 ovarian, 5.39 µM with SF-295 CNS, 9.36 µM with HOP-92 NSCLC and 1.93 µM in the test with HT29 colon.

For the molecule `Nc1ncnc2c1ncn2C1OC(CSCC(F)(F)F)C(O)C1O` (stereo not given), the TGI with M14 melanoma, with IGROV1 ovarian, in the test with SK-MEL-2 melanoma, in the test with EKVX NSCLC, in the test on TK-10 renal and with KM12 colon was greater than 100 µM throughout. Also, the TGI in the test with SK-OV-3 ovarian, in the test on SF-295 CNS, in the test on HOP-92 NSCLC and with HT29 colon was greater than 100 µM in each case.

`C/C(CC(O)(C(F)(F)F)C(F)(F)F)=N\NC(N)=O`: the total growth inhibition concentration (TGI) in the test on M14 melanoma, in the test with IGROV1 ovarian, in the test on SK-MEL-2 melanoma, with EKVX NSCLC, with TK-10 renal and with KM12 colon was greater than 10 µM each time. Further, the concentration for total growth inhibition (TGI) in the test with SK-OV-3 ovarian, in the test with SF-295 CNS, in the test with HOP-92 NSCLC and in the test on HT29 colon was greater than 10 µM in each case.
